As usually defined, the ED50 is the midpoint of the dose-response relation. Broadly, the LD50 is the dose expected to kill half of the subjects tested. By IC50 is commonly meant the concentration that inhibits the measured activity by half. Read a high IC50 as lower potency.

The test system of data set [1] is spasmodic seizures caused by pentetrazole. Nature of the data set: antipentetrazole test (anticonvulsant activity). Type of data set: in vivo. As to conditions: Rattus norvegicus, po; female rats 60-80 g; compound orally 30 min before pentetrazole 120 mg/kg i.p.; dose protecting 50%, Probit method. How it is done: The central properties of the compounds of formula I in accordance with the invention can be determined, for example, in the antipentetrazole test described hereinafter, which is generally recognized for recording anticonvulsant properties.
In this animal experiment, the compound under investigation is administered orally to female rats weighing 60-80 g and 30 minutes later there are administered i.p. 120 mg/kg of pentetrazole, which causes emprosthotonus and tonic stretchings of the fore and/or hind limbs in unprotected experimental animals 1-4 minutes after the injection. Ten experimental animals are used per dosage of test substance. After counting the protected experimental animals, the ED50 is determined according to the Probit method. The ED50 is that dosage which protects 50% of the experimental animals from the spasmodic seizures caused by pentetrazole.

Data set [2] is described as follows: acute toxicity, single oral administration to mice. As to conditions: mouse, in vivo. The source says: The results obtained with representative members of the class of compounds defined by formula I in the experiments described previously are compiled in the following Table. Moreover, the Table contains data concerning the acute toxicity of some of these compounds (LD50 in mg/kg in the case of single oral administration to mice).

For data set [3], the target named is central benzodiazepine receptors. Briefly: inhibition of the binding of tritiated diazepam at the specific benzodiazepine receptors in the cerebral cortex. From the text:
The affinity of compounds of formula I to the central benzodiazepine receptors has been determined according to the method described in Life Science 20, 2101-2110 (1977) and Science 198, 849-851 (1977). According to this method, the inhibition of the binding of tritiated diazepam at the specific benzodiazepine receptors in the cerebral cortex by the respective test substances is ascertained. The IC50 ("50% inhibiting concentration") is that concentration of the respective test substance which brings about a 50 percent inhibition of the specific binding of the tritiated diazepam at the specific benzodiazepine receptors in the cerebral cortex.

Consider `O=C1c2c(Cl)cccc2-n2cnc(-c3cccc(C(F)(F)F)c3)c2[C@@H]2CCCN12` [B, (S)-8-chloro-11,12,13,13a-tetrahydro-1-(α,α,α-trifluoro-m-tolyl)-9H-imidazo[1,5-a]pyrrolo[2,1-c][1,4]benzodiazepin-9-one], for which, in data set [1], it took a dose of 4 mg/kg to reach the 50% effect level (ED50). The molecule also gave an LD50 in data set [2] of 2500 to 5000 mg/kg. For the same molecule, the IC50 in data set [3] was determined as 0.04 µM.

In the case of `O=C1c2c(Cl)cccc2-n2cnc(-c3cccc(Cl)c3)c2[C@@H]2CCCN12` [A], it took a dose of 2.1 mg/kg to reach the 50% effect level in data set [1] (ED50). Moreover, the LD50 in data set [2] was 2500 to 5000 mg/kg. In data set [3], this molecule yielded an IC50 of 0.0042 µM.

(Values after patent US4616010A, “Imidazodiazepine derivatives” (Hoffmann-La Roche Inc., priority 1985, dated 1986).)
